The structures appear in SMILES notation.

Experimental findings from patent US11548855B2, “Pyrazole amide compound and application thereof, and fungicide” (Shandong United Pesticide Industry Co. Ltd., priority 2017, dated 2023) are described below.

The test system of one assay is soybean rust. In words: Field trial, soybean rust. The format is in vivo, Phakopsora pacchyrhizi Sydow. The following applies: sprayed 2 times. As to the method:
III. The Soybean Rust Test Method:
Spray method: Stein and leaf spraying (Applicator: Xinkangda lithium battery electric sprayer).
Test crops: soybean (cultivars: Glycine max(L) Merr)
The test was carried out in Shenyang, the test field was loam with rich organic matters and normal management of fertilizer and water, and no other pesticide was applied during the test.
The arrangement of the test plot was random block permutation; the area of the test plot: 25 m^2; repeat times: 3 times; spray time and frequency: 2 times on Aug. 11, 2018 and Aug. 21, 2018 respectively. Spray dosage: each treatment was repeated 3 times, the total water consumption was 8 L. No other pesticide was applied during the test. […] 15-20 days after the second spray treatment, the control effect was investigated.
The incidence of disease spots in each plot was investigated by diagonal selecting 5 samples/plot and 20 plants/samples, 10 leaves/plant was surveyed.
The grading standard of crop disease was as follows:
Grade 0: no leaf-spot area;
Grade 1: the ratio of leaf-spot area to leaf area is less than 5%;
Grade 3: the ratio of leaf-spot area to leaf area is between 6-25%;
Grade 5: the ratio of leaf-spot area to leaf area is between 26-50%;
Grade 7: the ratio of leaf-spot area to leaf area is between 51-75%;
Grade 9: the ratio of leaf-spot area to leaf area is between 76-100%;
According to the relevant content of the “Guidelines for the field efficacy trials of pesticides of the People's Republic of China (PRC)”, the disease index was calculated according to the grading standard, and the control effect in a unit of % was calculated based on the disease index, and the test data of significance analysis was performed by using DPS evaluation system (DMRT).

The next assay deals with cucumber powdery mildew. In words: Greenhouse pot test, cucumber powdery mildew. It is filed as in vivo. The following applies: greenhouse pot; for pest or weed control at 6.25 µg/mL / pest or weed control at 25 µg/mL / pest or weed control at 100 µg/mL: Cucumis sativus, 192 h, read-out: Control effect (%) Cucumber powdery mildew; for pest or weed control at 6.25 µg/mL: 6.25 mg/L; for pest or weed control at 25 µg/mL: 25 mg/L. As to the method:
(§1) Test method: each of the test compounds in Table 1 was dispensed to 5 wt % emulsifiable concentrate (hereinafter referred to as 5% EC). The greenhouse pot test was used in each experiment, and the effective concentrations of each compound were illustrated in Table 1.
Cucumber powdery mildew: cucumber seedling in a true leaf period with uniform growth was selected, and dried in the shade for 24 h after spray treatment. Fresh cucumber powdery mildew spores on the cucumber leaves were collected and washed, and filtered through a double gauze to prepare a spores suspension with concentration of about 100,000/mL, then spray inoculation was applied. The test materials inoculated were moved into a greenhouse (lighting 21-23° C.), after 8 days, the grading investigation was carried out according to the disease incidence condition of blank control, and the control effect in a unit of % was calculated according to disease index.
(§2) The investigation method: “Guidelines for the field efficacy trials of pesticides” was adopted as the grading standard, and the control effect in a unit of % was calculated based on the disease index. Disease index=Σ(number of diseased leaves at each grade×relative grade value)×100/(total number of leaves×9); Control effect (%)=(disease index of control−disease index of treated)×100/disease index of control;
(§3) The compounds provided by the present disclosure and some control compounds were tested by the same methods in the Test example 1, except that the effective concentrations of the compounds in this Test example are shown in Table 2.

In assay [1] the test system is wheat powdery mildew (Erysiphe graminis). In words: Greenhouse pot test, wheat powdery mildew. The note with it: Blumeria graminis, 168 h, read-out: Control effect (%) Wheat powdery mildew; for pest or weed control at 1.5625 µg/mL: 1.5625 mg/L; for pest or weed control at 3.125 µg/mL: 3.1250 mg/L; for pest or weed control at 6.25 µg/mL: 6.25 mg/L; for pest or weed control at 25 µg/mL: 25 mg/L; for pest or weed control at 100 µg/mL: 100 mg/L. The format is in vivo.
Text: as §1
Wheat powdery mildew: two-leaf stage potted wheat seedling with uniform growth was selected and made foliar spray treatment with 5% EC, the blank control sprayed with clean water was additionally arranged, three replicates were carried out. After 24 h, the leaves of the host plants were inoculated by shake-down method with sporangial suspensions of the fungi wheat powdery mildew (Erysiphe graminis), the plants were stored in a greenhouse (25±1° C.). After 7 days, the screening results were investigated according to the disease incidence condition of blank control.
as §2, §3

The test system of assay [2] is soybean rust (Phakopsora pacchyrhizi Sydow). In words: Greenhouse pot test, soybean rust. It is filed as in vivo. The note with it: Glycine max, 168 h, read-out: Control effect (%) Soybean rust; for pest or weed control at 1.5625 µg/mL: 1.5625 mg/L; for pest or weed control at 3.125 µg/mL: 3.1250 mg/L; for pest or weed control at 6.25 µg/mL: 6.25 mg/L; for pest or weed control at 25 µg/mL: 25 mg/L; for pest or weed control at 100 µg/mL: 100 mg/L. As to the method:
as §1
Soybean rust: two-leaf stage potted soybean seedling with uniform growth was selected and made foliar spray treatment with 5% EC, the blank control sprayed with clean water was additionally arranged, three replicates were carried out. After 24 h, the leaves of the host plants were inoculated with sporangial suspensions of the fungi soybean rust (Phakopsora pacchyrhizi Sydow), the plants were stored in humidity chamber (temperature 20-25° C., relative humidity>95%) and then transferred to greenhouse (25±1° C.) 8-16 h after infection. After 7 days, the screening results were investigated according to the disease incidence condition of blank control.
as §2, §3

The subject of assay [3] is corn rust (Puccinia sorghi). As to the kind of experiment: Greenhouse pot test, corn rust. The format is in vivo. The note with it: Puccinia sorghi, 168 h, read-out: Control effect (%) Corn rust; for pest or weed control at 1.5625 µg/mL: 1.5625 mg/L; for pest or weed control at 3.125 µg/mL: 3.1250 mg/L; for pest or weed control at 6.25 µg/mL: 6.25 mg/L; for pest or weed control at 25 µg/mL: 25 mg/L; for pest or weed control at 100 µg/mL: 100 mg/L. As to the method:
as §1
Corn rust: two-three leaf stage potted corn seedling with uniform growth was selected and made foliar spray treatment with 5% EC, the blank control sprayed with clean water was additionally arranged, three replicates were carried out. After 24 h, the leaves of the host plants were inoculated with sporangial suspensions of the fungi corn rust (Puccinia sorghi), the plants were stored in humidity chamber (temperature: lighting 25° C., dark 20° C., relative humidity 95-100%) and then transferred to greenhouse (25±1° C.) 24 h after infection. After 7 days, the screening results were investigated according to the disease incidence condition of blank control.
as §2, §3

Assay [4] relates to rice sheath blight fungi (Rhizoctonia solami). As to the kind of experiment: Greenhouse pot test, rice sheath blight. The format is in vivo. As to the method:
as §3
In addition, the test method for rice sheath blight as following steps:
The potted rice seedling with uniform growth was selected, and dried in the shade for 24 h after spray treatment, then inoculated 3 blocks of 0.25 cm^2 rice sheath blight fungi (Rhizoctonia solami) at the base of seedling by clamp inoculation bacterium block method. The test materials inoculated were moved into greenhouse (temperature: lighting 28° C., dark 25° C., relative humidity 95%), after 7 days, investigate 5 leaves of per block treatment, the grading investigation was carried out according to the disease incidence condition of sheaths and leaves of rice, “Guidelines for the field efficacy trials of pesticides” was adopted as the grading standard, the disease index was calculated according to the grading standard, and the control effect in a unit of % was calculated according to disease index.

For `CO/C=C(/C(=O)OC)c1ccccc1Oc1cc(Oc2ccccc2C#N)ncn1` [Azoxystrobin], the “Control effect (%)” value in the assay on soybean rust (dosage 50 mg/L) is listed as 84.62%. The “Control effect (%) Cucumber powdery mildew” value is reported as 0% with cucumber powdery mildew (100 mg/L) and 30% in the assay with cucumber powdery mildew (400 mg/L).
Consider `Cn1cc(C(=O)Nc2ccccc2Oc2ccc(C(F)(F)F)cc2I)c(C(F)F)n1` [Compound 4], for which, in the assay on soybean rust (dosage 50 mg/L), the “Control effect (%)” value turned out to be 80.14%. Besides, the “Control effect (%)” value in the assay on soybean rust (dosage 75 mg/L) is given as 85.62%. In addition, the “Control effect (%)” value with soybean rust (dosage 100 mg/L) came out at 93.11%. In addition, in assay [1], the pest or weed control at 1.5625 µg/mL worked out at 30%, the pest or weed control at 3.125 µg/mL was 70%, the pest or weed control at 6.25 µg/mL stood at 10% and the pest or weed control at 25 µg/mL turned out to be 25%. Also, in assay [1], the pest or weed control at 100 µg/mL came to 60%. For the same molecule, in assay [2], the pest or weed control at 1.5625 µg/mL was 98%, the pest or weed control at 3.125 µg/mL came out at 100%, the pest or weed control at 6.25 µg/mL amounted to 100% and the pest or weed control at 25 µg/mL amounted to 100%. Further, the pest or weed control at 100 µg/mL in assay [2] is 100%. In assay [3], the pest or weed control at 1.5625 µg/mL worked out at 50%, the pest or weed control at 3.125 µg/mL turned out to be 90%, the pest or weed control at 6.25 µg/mL came out at 98% and the pest or weed control at 25 µg/mL is 100%. The pest or weed control at 100 µg/mL in assay [3] was determined as 100%.
For the molecule `Fc1ccc([C@]2(Cn3cncn3)O[C@H]2c2ccccc2Cl)cc1` (racemic) [Epoxiconazole], the “Control effect (%) Rice sheath blight” value in assay [4] (0.625 mg/L) was found to be 30%; in assay [4] (2.5 mg/L), 70%; in assay [4] (10 mg/L) it was 100%.
In the case of `Cn1cc(C(=O)Nc2ccccc2Oc2ccc(Cl)cc2Cl)c(C(F)F)n1` [Compound 7], in assay [1], the pest or weed control at 1.5625 µg/mL stood at 0%, the pest or weed control at 3.125 µg/mL came to 50%, the pest or weed control at 6.25 µg/mL came out at 60% and the pest or weed control at 25 µg/mL stood at 75%. Moreover, the pest or weed control at 100 µg/mL in assay [1] worked out at 90%. In assay [2], the pest or weed control at 1.5625 µg/mL came out at 90%, the pest or weed control at 3.125 µg/mL was determined as 100%, the pest or weed control at 6.25 µg/mL turned out to be 96% and the pest or weed control at 25 µg/mL was 98%. Moreover, the pest or weed control at 100 µg/mL in assay [2] is 100%. For the same molecule, in the assay with cucumber powdery mildew, the pest or weed control at 6.25 µg/mL worked out at 30% and the pest or weed control at 25 µg/mL was determined as 60%. Moreover, in the assay on cucumber powdery mildew (100 mg/L), the pest or weed control at 100 µg/mL came out at 89%. Besides, in assay [3], the pest or weed control at 1.5625 µg/mL came out at 50%, the pest or weed control at 3.125 µg/mL was found to be 60%, the pest or weed control at 6.25 µg/mL was 90% and the pest or weed control at 25 µg/mL was 95%. Further, the pest or weed control at 100 µg/mL in assay [3] stood at 100%.
In the case of `Cn1nc(C(F)F)c(C(=O)Nc2ccccc2Oc2ccc(C(F)(F)F)cc2I)c1F` [Compound 3], the pest or weed control at 6.25 µg/mL in assay [1] was determined as 65%; in assay [2], 85%; with cucumber powdery mildew it was 45%; in assay [3], 75%. Further, the pest or weed control at 25 µg/mL in assay [1] was 80%; in assay [2], 100%; in the assay with cucumber powdery mildew, 70%; in assay [3], 100%. For the same molecule, the pest or weed control at 100 µg/mL in assay [1] was found to be 80%; in assay [2], 100%; with cucumber powdery mildew (100 mg/L), 95%; in assay [3], 100%.
